Experimental data taken from ChEMBL document CHEMBL5465560, “Selectivity Literature for EUbOPEN Chemogenomic Library” (2024).

Tests used:
[1] = target: T1, Serine/threonine-protein kinase Nek1 (Homo sapiens) (UniProt Q96PY6); experiment: Selectivity interaction (KinomeScan (DiscoverX)) EUB0000695a NEK1; details: at 100 nM
T1 sequence (whole entry): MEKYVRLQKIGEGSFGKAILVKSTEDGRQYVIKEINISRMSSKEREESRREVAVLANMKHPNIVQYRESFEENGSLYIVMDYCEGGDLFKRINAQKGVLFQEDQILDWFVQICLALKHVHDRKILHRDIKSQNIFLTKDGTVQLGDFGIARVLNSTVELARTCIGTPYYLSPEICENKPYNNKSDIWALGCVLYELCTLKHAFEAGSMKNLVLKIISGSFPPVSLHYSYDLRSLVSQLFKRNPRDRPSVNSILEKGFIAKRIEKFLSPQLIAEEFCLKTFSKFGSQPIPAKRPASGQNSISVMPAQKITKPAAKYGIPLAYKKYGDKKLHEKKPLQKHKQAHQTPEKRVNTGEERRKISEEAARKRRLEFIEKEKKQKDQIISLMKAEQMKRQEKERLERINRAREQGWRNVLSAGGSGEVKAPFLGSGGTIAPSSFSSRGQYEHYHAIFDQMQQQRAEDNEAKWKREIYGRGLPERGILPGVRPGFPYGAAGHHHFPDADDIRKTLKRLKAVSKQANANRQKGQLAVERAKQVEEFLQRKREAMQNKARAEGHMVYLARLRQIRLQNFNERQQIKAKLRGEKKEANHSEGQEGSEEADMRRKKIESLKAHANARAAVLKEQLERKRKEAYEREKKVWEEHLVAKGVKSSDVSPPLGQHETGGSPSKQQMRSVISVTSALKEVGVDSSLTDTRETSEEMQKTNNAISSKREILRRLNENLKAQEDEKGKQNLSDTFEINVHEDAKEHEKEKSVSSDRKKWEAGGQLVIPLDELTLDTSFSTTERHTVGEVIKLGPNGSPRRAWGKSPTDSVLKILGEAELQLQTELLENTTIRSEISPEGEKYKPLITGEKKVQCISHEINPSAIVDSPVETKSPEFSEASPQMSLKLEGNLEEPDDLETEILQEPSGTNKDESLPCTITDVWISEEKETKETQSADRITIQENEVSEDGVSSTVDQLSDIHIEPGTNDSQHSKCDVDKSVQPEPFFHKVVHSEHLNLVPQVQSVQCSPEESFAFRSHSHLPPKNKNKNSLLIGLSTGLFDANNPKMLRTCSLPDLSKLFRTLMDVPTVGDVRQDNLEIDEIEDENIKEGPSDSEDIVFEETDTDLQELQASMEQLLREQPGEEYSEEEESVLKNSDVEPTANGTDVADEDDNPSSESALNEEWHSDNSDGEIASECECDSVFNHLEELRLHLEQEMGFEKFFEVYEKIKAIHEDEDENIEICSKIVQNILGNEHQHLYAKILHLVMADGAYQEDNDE

[2] = target: Tyrosine-protein kinase Fes/Fps (Homo sapiens) (UniProt P07332); experiment: Selectivity interaction (Ambit KINOMEscan and KiNATiv profiling in Jurkat cells) EUB0000090b FES; assay type: cell-based; details: at 1 µM
[3] = target: Dual specificity protein kinase CLK2 (Homo sapiens, UniProt P49760); experiment: Selectivity interaction (KinomeScan (DiscoverX)) EUB0000045b CLK2
Focal adhesion kinase 1 = Focal adhesion kinase 1 (Homo sapiens, UniProt Q05397); experiment: Selectivity interaction (KinomeScan (DiscoverX)) EUB0000045b PTK2
[4] = target: T2, Serine/threonine-protein kinase TAO3 (Homo sapiens) (UniProt Q9H2K8); experiment: Selectivity interaction (KinomeScan (DiscoverX)) EUB0001079a TAOK3; details: at 1 µM
T2 sequence (whole entry): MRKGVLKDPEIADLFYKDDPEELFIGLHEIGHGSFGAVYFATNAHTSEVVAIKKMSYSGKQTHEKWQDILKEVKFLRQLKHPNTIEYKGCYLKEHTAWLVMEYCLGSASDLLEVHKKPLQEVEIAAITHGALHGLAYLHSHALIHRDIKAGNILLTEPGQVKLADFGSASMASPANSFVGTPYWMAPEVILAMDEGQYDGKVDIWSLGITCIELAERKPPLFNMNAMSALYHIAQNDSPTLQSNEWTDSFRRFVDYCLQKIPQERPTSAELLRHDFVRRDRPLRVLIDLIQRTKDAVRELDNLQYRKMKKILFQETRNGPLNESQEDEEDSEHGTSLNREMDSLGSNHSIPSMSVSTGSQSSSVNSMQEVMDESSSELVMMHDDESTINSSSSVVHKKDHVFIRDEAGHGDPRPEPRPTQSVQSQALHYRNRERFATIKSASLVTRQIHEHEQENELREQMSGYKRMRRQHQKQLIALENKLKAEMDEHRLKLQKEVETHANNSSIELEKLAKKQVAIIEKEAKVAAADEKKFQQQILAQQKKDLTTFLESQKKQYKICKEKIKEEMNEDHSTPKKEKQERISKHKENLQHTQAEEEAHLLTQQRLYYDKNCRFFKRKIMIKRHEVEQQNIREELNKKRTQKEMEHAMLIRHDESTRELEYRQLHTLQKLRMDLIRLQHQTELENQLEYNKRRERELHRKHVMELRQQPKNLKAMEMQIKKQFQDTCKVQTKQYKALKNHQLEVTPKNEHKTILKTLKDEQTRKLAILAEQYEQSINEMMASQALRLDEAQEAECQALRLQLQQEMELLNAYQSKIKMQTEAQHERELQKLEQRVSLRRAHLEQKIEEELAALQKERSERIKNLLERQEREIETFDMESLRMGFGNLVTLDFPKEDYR

[5] = target: STE20/SPS1-related proline-alanine-rich protein kinase (Homo sapiens) (UniProt Q9UEW8); experiment: Selectivity interaction (KinomeScan (DiscoverX)) EUB0000092b STK39; details: at 10 µM
[6] = target: MAP/microtubule affinity-regulating kinase 3 (Homo sapiens) (UniProt P27448); experiment: Selectivity interaction (ActivX KiNativ screen (ex vivo kinase selectivity in human PBMCs)) EUB0001619a MARK3; assay type: cell-based; details: PBMC, at 1 µM
MAP/microtubule affinity-regulating kinase 3 (Homo sapiens), sequence (P27448 whole entry, looked up): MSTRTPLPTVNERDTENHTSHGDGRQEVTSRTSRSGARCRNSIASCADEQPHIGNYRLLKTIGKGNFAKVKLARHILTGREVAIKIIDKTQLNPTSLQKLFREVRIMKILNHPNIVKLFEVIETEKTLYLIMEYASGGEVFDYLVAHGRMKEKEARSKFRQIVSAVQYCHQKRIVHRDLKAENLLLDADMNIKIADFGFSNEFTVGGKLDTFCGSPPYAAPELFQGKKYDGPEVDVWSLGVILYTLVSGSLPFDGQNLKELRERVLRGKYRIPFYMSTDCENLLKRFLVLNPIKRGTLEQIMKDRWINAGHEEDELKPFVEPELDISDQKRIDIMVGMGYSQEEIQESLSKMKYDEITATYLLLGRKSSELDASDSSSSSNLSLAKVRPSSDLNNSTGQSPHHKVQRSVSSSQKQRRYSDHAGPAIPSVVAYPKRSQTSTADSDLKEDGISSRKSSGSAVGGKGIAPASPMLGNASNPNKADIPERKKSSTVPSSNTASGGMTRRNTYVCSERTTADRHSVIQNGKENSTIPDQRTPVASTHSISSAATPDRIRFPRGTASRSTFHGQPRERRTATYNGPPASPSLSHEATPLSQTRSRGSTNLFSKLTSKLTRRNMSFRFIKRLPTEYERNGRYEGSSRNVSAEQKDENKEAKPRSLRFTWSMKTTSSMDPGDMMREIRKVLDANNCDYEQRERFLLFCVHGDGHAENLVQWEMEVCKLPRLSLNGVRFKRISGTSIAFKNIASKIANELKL

Focal adhesion kinase 1, sequence (Q05397 2-1052 limits assumed): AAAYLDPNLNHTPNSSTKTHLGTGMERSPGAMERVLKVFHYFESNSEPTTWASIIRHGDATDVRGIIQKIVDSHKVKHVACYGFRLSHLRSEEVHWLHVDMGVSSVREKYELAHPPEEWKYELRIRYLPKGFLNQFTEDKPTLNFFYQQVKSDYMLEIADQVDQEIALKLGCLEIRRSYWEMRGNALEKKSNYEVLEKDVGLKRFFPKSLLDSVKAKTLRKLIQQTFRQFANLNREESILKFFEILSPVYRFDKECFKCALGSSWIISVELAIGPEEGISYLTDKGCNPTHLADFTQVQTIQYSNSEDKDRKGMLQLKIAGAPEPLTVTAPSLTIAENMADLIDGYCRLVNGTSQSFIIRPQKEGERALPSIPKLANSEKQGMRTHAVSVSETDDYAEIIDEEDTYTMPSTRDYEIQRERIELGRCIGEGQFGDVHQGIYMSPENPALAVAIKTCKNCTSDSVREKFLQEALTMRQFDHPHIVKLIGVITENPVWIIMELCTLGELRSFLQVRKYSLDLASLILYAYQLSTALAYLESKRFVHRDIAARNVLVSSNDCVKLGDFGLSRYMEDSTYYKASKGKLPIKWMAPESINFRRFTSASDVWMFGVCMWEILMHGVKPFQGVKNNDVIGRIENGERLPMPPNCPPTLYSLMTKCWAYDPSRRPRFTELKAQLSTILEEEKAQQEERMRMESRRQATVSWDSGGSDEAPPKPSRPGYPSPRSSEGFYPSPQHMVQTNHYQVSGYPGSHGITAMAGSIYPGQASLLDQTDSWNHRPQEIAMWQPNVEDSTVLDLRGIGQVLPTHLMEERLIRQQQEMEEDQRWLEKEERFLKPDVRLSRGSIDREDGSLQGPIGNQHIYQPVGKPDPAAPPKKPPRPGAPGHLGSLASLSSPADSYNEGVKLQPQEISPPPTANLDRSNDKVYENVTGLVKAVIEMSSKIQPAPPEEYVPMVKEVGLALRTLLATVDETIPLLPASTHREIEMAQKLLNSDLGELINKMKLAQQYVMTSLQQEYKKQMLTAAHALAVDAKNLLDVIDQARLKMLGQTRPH
Dual specificity protein kinase CLK2, sequence (P49760 whole entry, looked up): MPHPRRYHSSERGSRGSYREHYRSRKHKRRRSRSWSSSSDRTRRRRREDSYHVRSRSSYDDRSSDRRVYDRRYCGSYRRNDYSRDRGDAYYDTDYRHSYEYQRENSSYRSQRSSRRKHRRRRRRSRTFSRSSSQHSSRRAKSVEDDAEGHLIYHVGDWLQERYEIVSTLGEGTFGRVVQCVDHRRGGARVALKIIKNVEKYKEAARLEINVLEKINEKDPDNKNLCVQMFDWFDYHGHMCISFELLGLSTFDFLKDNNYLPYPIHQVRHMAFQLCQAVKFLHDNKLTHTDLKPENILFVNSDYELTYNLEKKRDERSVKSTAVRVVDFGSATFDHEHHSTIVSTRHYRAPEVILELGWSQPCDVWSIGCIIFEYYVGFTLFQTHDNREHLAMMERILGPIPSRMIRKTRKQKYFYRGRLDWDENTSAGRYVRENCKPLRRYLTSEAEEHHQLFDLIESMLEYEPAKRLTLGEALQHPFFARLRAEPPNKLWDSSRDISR
Tyrosine-protein kinase Fes/Fps (Homo sapiens), sequence (P07332 whole entry): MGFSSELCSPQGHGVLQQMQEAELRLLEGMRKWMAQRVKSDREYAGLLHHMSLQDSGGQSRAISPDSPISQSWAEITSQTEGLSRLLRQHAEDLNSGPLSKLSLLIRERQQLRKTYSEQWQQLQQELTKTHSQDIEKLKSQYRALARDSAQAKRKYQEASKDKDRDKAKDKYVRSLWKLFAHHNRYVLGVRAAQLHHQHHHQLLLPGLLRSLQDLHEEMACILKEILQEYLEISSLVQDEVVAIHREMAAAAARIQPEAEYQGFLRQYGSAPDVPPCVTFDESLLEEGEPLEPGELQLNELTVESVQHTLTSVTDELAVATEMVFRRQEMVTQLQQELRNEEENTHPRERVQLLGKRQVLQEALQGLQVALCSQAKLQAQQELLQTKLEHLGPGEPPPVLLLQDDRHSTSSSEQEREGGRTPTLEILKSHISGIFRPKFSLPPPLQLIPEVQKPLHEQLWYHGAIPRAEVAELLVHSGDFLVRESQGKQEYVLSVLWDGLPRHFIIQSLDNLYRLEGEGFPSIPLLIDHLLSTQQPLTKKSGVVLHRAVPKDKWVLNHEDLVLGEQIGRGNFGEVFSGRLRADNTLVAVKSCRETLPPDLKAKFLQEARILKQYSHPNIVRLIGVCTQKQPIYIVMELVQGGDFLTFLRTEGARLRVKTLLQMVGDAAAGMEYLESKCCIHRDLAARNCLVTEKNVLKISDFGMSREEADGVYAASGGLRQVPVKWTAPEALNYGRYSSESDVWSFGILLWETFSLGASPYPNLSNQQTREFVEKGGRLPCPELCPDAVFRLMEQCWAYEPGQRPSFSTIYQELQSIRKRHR

SMILES: Cc1cc(F)c(C(=O)Nc2cccc(-c3nncn3C(C)C)n2)cc1-n1cnc(C2CC2)c1
- % of control [1]: 100%

SMILES: CN(C)C/C=C/C(=O)Nc1ccc(C(=O)N2CCCC(Nc3ncc(Cl)c(-c4c[nH]c5ccccc45)n3)C2)cc1 (centres undefined)
- % of control [2]: 68%

SMILES: C=CC(=O)Nc1cc(-n2c(=O)ccc3cnc4ccc(-c5ccc(NS(C)(=O)=O)cc5)cc4c32)ccc1C
- % of control ([3]; at 1 µM): 100%
- % of control ([3]; at 10 µM): 50%
- % of control (Focal adhesion kinase 1; at 1 µM): 96%
- % of control (Focal adhesion kinase 1; at 10 µM): 100%

SMILES: Nc1cnc(N2CCc3cc(S(=O)(=O)Nc4c(F)cc(Cl)cc4F)cc(N4CCCC4=O)c32)nc1 [TP-020n]
- % of control [4]: 70%

SMILES: CCC(=O)N1CCN(c2ccc(-n3c(=O)ccc4cnc5ccc(-c6cnc7ccccc7c6)cc5c43)cc2C(F)(F)F)CC1
- % of control [5]: 100%

SMILES: N#Cc1cccc(-c2c[nH]c3ncnc(N4CCOCC4)c23)c1
- % of inhibition [6]: 24%
